Experimental data: patent US11364248B2 (AMGEN INC., priority 2017, dated 2022)
Like-named read-outs stand apart in the source and are kept apart here.

Assays:
Mcl-1/Bim interaction = Mcl-1/Bim interaction (Homo sapiens (Human), UniProt Q07820); test: Cell Free Mcl-1: Bim Affinity Assay (Mcl-1 HTRF); type: binding; settings: TR-FRET, recombinant human Mcl-1(171-327), biotin-Bim(51-76); read-out: Mel-1 HTRF IC50
Description: Cell Free Mcl-1: Bim Affinity Assay (Mcl-1 HTRF)
The inhibition of the Mcl-1/Bim interaction was measured using a time-resolved fluorescence resonance energy transfer (TR-FRET) assay. The recombinant human Mcl-1 (C-terminally 6×His tagged Mcl-1 containing residues 171-327) was generated at Amgen Inc (Thousand Oaks, Calif.). A biotinylated peptide derived from human Bim (residues 51-76) was purchased from CPC Scientific (San Jose, Calif.). The TR-FRET assay was conducted in a 384-well white OptiPlate™ (PerkinElmer, Waltham, Mass.) in a total volume of 40 μL. The reaction mixture contained 0.1 nM Mcl-1(171-327), 0.05 nM biotin-Bim(51-76), 0.05 nM LANCER Eu-W1024 Anti-6×His (PerkinElmer), 0.072 nM Streptavidin-Xlent (Cisbio, Bedford, Mass.), and serially diluted test compounds in the binding buffer of 20 mM Hepes, pH 7.5, 150 mM NaCl, 0.016 mM Brij©35, and 1 mM dithiothreitol. Test compounds were pre-incubated with Mcl-1(171-327) and biotin-Bim (51-76) for 60 min before addition of the detection mixture (LANCE Eu-W1024 Anti-6×His and Streptavidin-Xlent). The reaction plates were further incubated overnight and then were read on an Envision® multimode reader (PerkinElmer). Fluorescence signals were measured at 620 nm (40-nm bandwidth) and 665 nm (7.5-nm bandwidth) with a 60 μs delay after excitation at 320 nm (75-nm bandwidth). The signal ratio at 665/620 nm corresponded to the Mcl-1/Bim interaction and was used in all data analyses. The IC50 values of test compounds were determined from duplicate data by analyzing competition curves using a four-parameter sigmoidal model in GraphPad Prism (GraphPad Software, San Diego, Calif.) or in Genedata Screener® (Genedata, Basel, Switzerland).

OPM-2 = test: Cell Viability Assay (OPM-2 10 FBS); type: cell-based, human; settings: OPM-2 cells, CellTiter-Glo, read-out: OPM-2 10% FBS IC50 IP
Description: Cell Viability Assay (OPM-2 10 FBS)
The human multiple myeloma cell line, OPM-2, was cultured in complete growth medium containing RPMI 1640 and 10% fetal bovine serum (FBS). Cells were seeded into 384-well plates at 3000 cells/well density in complete growth medium containing 10% FBS, and incubated for 16 h with serially diluted test compounds in a 37° C. incubator with 5% CO2. Cell viability was tested using CellTiter-Glo® assay (Promega, Madison, Wis.) according to the manufacturer recommendations. Luminescence was determined using an EnVision® Multilabel plate reader 25 min after the addition of detection reagent. IC50 values were then calculated with Xlfit using a logistical 4-parameter fit model in GraphPad Prism (GraphPad Software, San Diego, Calif.) or in Genedata Screener® (Genedata, Basel, Switzerland).

Chain of Mcl-1/Bim interaction (Q07820 171-327): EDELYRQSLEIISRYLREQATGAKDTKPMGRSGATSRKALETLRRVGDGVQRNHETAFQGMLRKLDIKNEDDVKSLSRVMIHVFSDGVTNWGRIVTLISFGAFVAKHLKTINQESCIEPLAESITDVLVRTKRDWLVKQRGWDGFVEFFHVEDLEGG

IC50 (Mcl-1/Bim interaction)	Compound	IC50 (OPM-2; 16 h)	IC50 (OPM-2; Homo sapiens, OPM-2, 16 h)
1.6 nM	C[C@@H]1[C@@H](C)CCC[C@@H]([C@H]2OC[C@@H](N(C)C)CO2)[C@@H]2CC[C@H]2CN2C[C@@]3(CCCc4cc(Cl)ccc43)COc3ccc(cc32)C(=O)NS1(=O)=O (relative stereo) [Example 2, (1S,3′R,6′R,7′R,11′S,12′R)-6-CHLORO-7′-(CIS-5-(DIMETHYLAMINO)-1,3-DIOXAN-2-YL)-11′,12′-DIMETHYL-3,4-DIHYDRO-2H,15′H-SPIRO[NAPHTHALENE-1,22′-[20]OXA[13]THIA[1,14]DIAZATETRACYCLO[14.7.2.0˜3,6˜.0˜19,24-]PENTACOSA[16,18,24]TRIEN]-15′-ONE 13′,13′-DIOXIDE]	367 nM	
0.645 nM	C[C@@H]1[C@@H](C)CCC[C@H]([C@H]2OC[C@H](N)CO2)[C@@H]2CC[C@H]2CN2C[C@@]3(CCCc4cc(Cl)ccc43)COc3ccc(cc32)C(=O)NS1(=O)=O (relative stereo) [Example 17]	194 nM	
1.37 nM	C[C@@H]1[C@@H](C)CCC[C@H]([C@H]2OC[C@H](N)CO2)[C@@H]2CC[C@H]2CN2C[C@@]3(CCCc4cc(Cl)ccc43)COc3ccc(cc32)C(=O)NS1(=O)=O (relative stereo) [Example 18]	1050 nM	
7.99 nM	CN[C@H]1CO[C@@H]([C@H]2CCC[C@H](C)[C@@H](C)S(=O)(=O)NC(=O)c3ccc4c(c3)N(C[C@@H]3CC[C@H]32)C[C@@]2(CCCc3cc(Cl)ccc32)CO4)OC1 (relative stereo) [Example 41]	7070 nM	
0.617 nM	CN[C@H]1CO[C@@H]([C@H]2CCC[C@H](C)[C@@H](C)S(=O)(=O)NC(=O)c3ccc4c(c3)N(C[C@@H]3CC[C@H]32)C[C@@]2(CCCc3cc(Cl)ccc32)CO4)OC1 (relative stereo) [Example 42]	217 nM	
2.08 nM	C[C@@H]1[C@@H](C)CCC[C@H]([C@H]2OC[C@H](N3C(=O)c4ccccc4C3=O)CO2)[C@@H]2CC[C@H]2CN2C[C@@]3(CCCc4cc(Cl)ccc43)COc3ccc(cc32)C(=O)NS1(=O)=O (relative stereo) [Example 44]	> 33300 nM	
3.32 nM	C[C@@H]1[C@@H](C)CCC[C@H]([C@H]2OC[C@@](CO)(N(C)C)CO2)[C@@H]2CC[C@H]2CN2C[C@@]3(CCCc4cc(Cl)ccc43)COc3ccc(cc32)C(=O)NS1(=O)=O (relative stereo) [Example 81, (1S,3′R,6′R,7′S,11′S,12′R)-6-chloro-7′-(cis-5-(dimethylamino)-5-(hydroxymethyl)-1,3-dioxan-2-yl)-11′,12′-dimethyl-3,4-dihydro-2H,15′H-spiro[naphthalene-1,22′-[20]oxa[13]thia[1,14]diazatetracyclo [14.7.2.0~3,6~.0~19,24~]pentacosa[16,18,24]trien]-15′-one 13′,13′-dioxide]	2540 nM	
0.459 nM	C[C@@H]1[C@@H](C)C/C=C/[C@@H]([C@H]2OC[C@H](N(C)C)CO2)[C@@H]2CC[C@H]2CN2C[C@@]3(CCCc4cc(Cl)ccc43)COc3ccc(cc32)C(=O)NS1(=O)=O (relative stereo) [Example 96]	314 nM	
0.308 nM	C[C@@H]1[C@@H](C)C/C=C/[C@H]([C@H]2OC[C@@H](N(C)C)CO2)[C@@H]2CC[C@H]2CN2C[C@@]3(CCCc4cc(Cl)ccc43)COc3ccc(cc32)C(=O)NS1(=O)=O (relative stereo) [Example 97]	84 nM	
0.473 nM	CO[C@H]1CO[C@@H]([C@@H]2CCC[C@H](C)[C@@H](C)S(=O)(=O)NC(=O)c3ccc4c(c3)N(C[C@@H]3CC[C@H]32)C[C@@]2(CCCc3cc(Cl)ccc32)CO4)OC1 (single isomer, unassigned) [Example 25]	903 nM	
6.16 nM	CO[C@H]1CO[C@@H]([C@@H]2CCC[C@H](C)[C@@H](C)S(=O)(=O)NC(=O)c3ccc4c(c3)N(C[C@@H]3CC[C@H]32)C[C@@]2(CCCc3cc(Cl)ccc32)CO4)OC1 (single isomer, unassigned) [Example 26]	14600 nM	
0.837 nM	C[C@@H]1[C@@H](C)CCC[C@@H]([C@H]2OC[C@@H](CN(C)C)O2)[C@@H]2CC[C@H]2CN2C[C@@]3(CCCc4cc(Cl)ccc43)COc3ccc(cc32)C(=O)NS1(=O)=O (single isomer, unassigned) [Example 29]	317 nM	
5.12 nM	C[C@@H]1[C@@H](C)CCC[C@@H]([C@H]2OC[C@@H](CN(C)C)O2)[C@@H]2CC[C@H]2CN2C[C@@]3(CCCc4cc(Cl)ccc43)COc3ccc(cc32)C(=O)NS1(=O)=O (single isomer, unassigned) [Example 30]	2440 nM	
0.612 nM	C[C@@H]1[C@@H](C)CCC[C@@H]([C@H]2OC[C@H](CN(C)C)O2)[C@@H]2CC[C@H]2CN2C[C@@]3(CCCc4cc(Cl)ccc43)COc3ccc(cc32)C(=O)NS1(=O)=O (single isomer, unassigned) [Example 33]	319 nM	
11.1 nM	C[C@@H]1[C@@H](C)CCC[C@@H]([C@H]2OC[C@H](CN(C)C)O2)[C@@H]2CC[C@H]2CN2C[C@@]3(CCCc4cc(Cl)ccc43)COc3ccc(cc32)C(=O)NS1(=O)=O (single isomer, unassigned) [Example 34]	5830 nM	
0.375 nM	CC(=O)N1C[C@@H]2O[C@@H]([C@H]3CCC[C@H](C)[C@@H](C)S(=O)(=O)NC(=O)c4ccc5c(c4)N(C[C@@H]4CC[C@H]43)C[C@@]3(CCCc4cc(Cl)ccc43)CO5)O[C@@H]2C1 (single isomer, unassigned) [Example 39]	578 nM	
0.492 nM	C[C@@H]1[C@@H](C)CCC[C@@H]([C@H]2OC[C@@H](N3CC(F)C3)CO2)[C@@H]2CC[C@H]2CN2C[C@@]3(CCCc4cc(Cl)ccc43)COc3ccc(cc32)C(=O)NS1(=O)=O (single isomer, unassigned) [Example 50]	126 nM	
0.754 nM	C[C@@H]1[C@@H](C)CCC[C@@H]([C@H]2OC[C@@H](N3CC(F)C3)CO2)[C@@H]2CC[C@H]2CN2C[C@@]3(CCCc4cc(Cl)ccc43)COc3ccc(cc32)C(=O)NS1(=O)=O (single isomer, unassigned) [Example 51]	1010 nM	
0.742 nM	C[C@@H]1[C@@H](C)CCC[C@@H]([C@H]2OC[C@@H](N3CC(Cl)C3)CO2)[C@@H]2CC[C@H]2CN2C[C@@]3(CCCc4cc(Cl)ccc43)COc3ccc(cc32)C(=O)NS1(=O)=O (single isomer, unassigned) [Example 55]	465 nM	
1.98 nM	C[C@@H]1[C@@H](C)CCC[C@@H]([C@H]2OC[C@@H](N3CC(Cl)C3)CO2)[C@@H]2CC[C@H]2CN2C[C@@]3(CCCc4cc(Cl)ccc43)COc3ccc(cc32)C(=O)NS1(=O)=O (single isomer, unassigned) [Example 56]	1900 nM	
0.455 nM	C[C@@H]1[C@@H](C)CCC[C@@H]([C@H]2OC[C@@H](N3CC(O)C3)CO2)[C@@H]2CC[C@H]2CN2C[C@@]3(CCCc4cc(Cl)ccc43)COc3ccc(cc32)C(=O)NS1(=O)=O (single isomer, unassigned) [Example 61]	1010 nM	

Compound	IC50 (Mcl-1/Bim interaction)	IC50 (OPM-2; 16 h)	IC50 (OPM-2; Homo sapiens, OPM-2, 16 h)
C[C@@H]1[C@@H](C)CCC[C@@H]([C@H]2OC[C@H](N(C)C)CO2)[C@@H]2CC[C@H]2CN2C[C@@]3(CCCc4cc(Cl)ccc43)COc3ccc(cc32)C(=O)NS1(=O)=O (relative stereo) [Example 6, (1S,3′R,6′R,7′R,11′S,12′R)-6-CHLORO-7′-(TRANS-5-(DIMETHYLAMINO)-1,3-DIOXAN-2-YL)-11′,12′-DIMETHYL-3,4-DIHYDRO-2H,15′H-SPIRO[NAPHTHALENE-1,22′-[20]OXA[13]THIA[1,14]DIAZATETRACYCLO[14.7.2.0˜3,6˜.0˜19,24˜]PENTACOSA[16,18,24]TRIEN]-15′-ONE 13′,13′-DIOXIDE]	2.09 nM		557 nM
CCN(C)[C@H]1CO[C@@H]([C@H]2CCC[C@H](C)[C@@H](C)S(=O)(=O)NC(=O)c3ccc4c(c3)N(C[C@@H]3CC[C@H]32)C[C@@]2(CCCc3cc(Cl)ccc32)CO4)OC1 (relative stereo) [Example 46]	0.34 nM	47 nM	
C[C@@H]1[C@@H](C)CCC[C@H]([C@H]2OC[C@@H](N3CC4(COC4)C3)CO2)[C@@H]2CC[C@H]2CN2C[C@@]3(CCCc4cc(Cl)ccc43)COc3ccc(cc32)C(=O)NS1(=O)=O (relative stereo) [Example 59]	0.319 nM	90 nM	
